Entries after “also recorded” stand apart in the source; their conditions may differ.
Experiments:
cancer cells = assay: toxicity to cultured cells; type: cell-based, human
[1] = system: various types of cancer cells including PC; assay: modified Boyden Chamber invasion assay; type: cell-based, human; conditions: pre-treatment, dose as indicated (20 μM or 40 μM)
Procedure: FIGS. 17A-17H. Effect of PDZ1i on invasion, MDA-9/IGF-R1 interaction and IGF-R1, STAT3 and SRC phosphorylation. FIG. 17A) Different cancer cells (25,000 cells/well) from various anatomic origins were pre-treated with either DMSO (vehicle) or PDZ1i (dose as indicated) and invasion ability was assayed using modified Boyden Chamber according to the manufacturer's instructions. Photomicrographs were taken at 10× magnification and quantification of the results of three independent experiments is provided in the graphs. The data presents mean±S.D. B) The designated cells were treated with DMSO or PDZ1i and invasion properties were determined using a modified Boyden Chamber assay (BD bioscience). RWPE-1 mda-9: mda-9 transiently overexpressing cell line. […] FIG. 17E) Cells were growth starved for 24 h and treated with either DMSO or PDZ1i (dose indicated in μM) for 6 h. Cells were treated with human recombinant IGFBP-2 (hIGFBP-2, 10 ng/ml) for 2 h, lysates were prepared and western blot analysis was conducted with specific antibodies. […] Cells were treated with human recombinant IL-6 (hIGFBP-2, 1 ng/ml) for 2 h, cell lysates were prepared and analyzed by western blotting. […]
Boyden chamber assays were done to investigate the invasive properties of cancer cells^26, 27. […] After 18 h, invasive cells were photographed and analyzed.

B16 cells = assay: B16 experimental lung metastasis; type: in vivo, C57BL/6 mice; conditions: repeated treatment I.P., 30 and 50 mg/kg, 6 injections
Procedure: FIG. 57. PDZ1in (113B7) treatment results in marked reduction of B16 experimental lung metastases. C57BU6 mice were inoculated I.V. with B16 cells ([…]) to generate experimental lung metastases. One day after I.V. injection, mice received 30 and 50 mg/kg b.w. PDZ1i I.P. 3× a week for the first two weeks (total 6 injections). After 21 days, mice were sacrificed and lungs were collected, fixed with formalin and examined for nodules. Representative lungs with tumor metastases are shown.
Preliminary studies were performed to determine if administering PDZ1ln (113B7) would affect experimental metastasis. B16, a highly aggressive metastatic mouse melanoma, was intravenously injected resulting in lung nodules within 3 weeks. […] This experiment confirms that treatment with PDZ1in targeting MDA-9/Syntenin can directly prevent formation of lung metastases in vivo.

U1242-Luc cells = assay: intracranial U1242-Luc tumors, PDZ1i with or without radiation; type: in vivo, nude mice
Procedure: FIGS. 14A-14F. PDZ1i treatment combined with radiation in an in vivo model of GBM. FIG. 14A. U1242-luc cells were injected intracranially into nude mice. After 7 days mice were randomized to 4 groups, and mice receiving therapy were treated on days 11-14 as pictured. FIG. 14B. Kaplan-Meier survival curves for each treatment group. Median survival as listed. Two brain tissue samples were isolated for each group, sectioned, and H and E staining is shown. FIG. 14C, DMSO treated mice, FIG. 14D, PDZ1i treated mice, FIG. 14E, mice treated with radiation and DMSO; FIG. 14F, mice treated with radiation and PDZ1i.
PDZ1i combined with radiation extends survival and reduces GBM invasion in vivo. We next investigated the combination of PDZ1i with radiotherapy in vivo. U1242-Luc cells were injected intracranially under anesthesia and formed tumors, confirmed by imaging at 7 d post-injection. At this point, mice were randomized to 4 groups: DMSO treatment, PDZ1i treatment (30 mg/kg), DMSO+IR, and PDZ1i+IR. Treatment began on 11 d post-injection and mice receiving radiation were treated with 2.5 Gy for 4 consecutive d. PDZ1i was administered 2 h prior to radiation treatment on each of the 4 treatment d (FIG. 14A). […] To investigate this, brain tissue sections were collected and H & E stains were analyzed. […]

With `Cc1cc(NC(=O)c2nc3[nH]c4c(c(=O)n3n2)CCC4)c(C)cc1NC(=O)CCc1nnc(-c2ccccc2)o1` [113B7, N-(2,5-dimethyl-4-(3-(5-phenyl-1,3,4-oxadiazol-2-yl)propanamido)phenyl)-8-oxo-5,6,7,8-tetrahydro-4H-cyclopenta[d][1,2,4]triazolo[1,5-a]pyrimidine-2-carboxamide] the “toxicity to primary normal cells and cancer cells” value (cancer cells) was “non-toxic”, the toxicity (cancer cells; tested at 50 μM) was “did not show any toxicity” and the cytotoxicity (cancer cells; tested up to 20 μM) was “did not show any significant cytotoxicity”. For the same compound, the invasion [1] was “inhibited invasion in a dose-dependent manner; also recorded: significantly inhibited the invasion”, the invasion ([1]; listed as PDZ1i) was “significantly inhibited the invasion” and the “number of lung nodules” value (B16 cells) was “significantly reduced the number of lung nodules”. For the same compound, the average survival (U1242-Luc cells; PDZ1i 30 mg/kg 2 h prior to IR, 2.5 Gy for 4 consecutive d) was 78.8 days and the average survival (U1242-Luc cells; PDZ1i 30 mg/kg alone) was 54.7 days.

Source: US11008325B2, “Inhibitors of cancer invasion, attachment, and/or metastasis” (VIRGINIA COMMONWEALTH UNIVERSITY, priority 2016, dated 2021)
